This note sets out measurements from patent US7960377B2 (priority 2008, dated 2011).

The target of the test is human CB1 receptor (Homo sapiens, UniProt P21554). As to the kind of experiment: cell-based.
Sequence of human CB1 receptor (P21554 whole entry): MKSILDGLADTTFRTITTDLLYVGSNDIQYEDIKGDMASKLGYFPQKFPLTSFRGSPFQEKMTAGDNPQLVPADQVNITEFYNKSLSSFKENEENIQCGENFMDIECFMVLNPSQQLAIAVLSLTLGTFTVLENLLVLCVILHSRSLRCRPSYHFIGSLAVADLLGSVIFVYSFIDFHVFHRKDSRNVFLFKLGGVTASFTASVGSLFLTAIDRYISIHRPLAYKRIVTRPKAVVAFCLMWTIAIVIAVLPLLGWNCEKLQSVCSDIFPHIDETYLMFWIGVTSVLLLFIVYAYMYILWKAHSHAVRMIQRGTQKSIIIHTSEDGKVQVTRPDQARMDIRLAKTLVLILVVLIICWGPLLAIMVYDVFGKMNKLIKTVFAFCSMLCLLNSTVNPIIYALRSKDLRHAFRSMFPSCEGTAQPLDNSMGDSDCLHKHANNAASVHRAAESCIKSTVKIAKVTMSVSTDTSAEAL

Consider `O=C(c1cnc2c(c1)N(S(=O)(=O)c1ccc(C(F)(F)F)cc1)CCO2)N1CCCCC1CO` (racemic) [Example 72, +/− (2-(hydroxymethyl)piperidin-1-yl)(1-(4-(trifluoro-methyl)phenylsulfonyl)-2,3-dihydro-1H-pyrido [2,3-b][1,4]oxazin-7-yl) methanone], for which the EC50 was greater than 30 µM.
On the same count and under the same terms, then `COC(=O)CC1CCCCN1C(=O)c1cnc2c(c1)N(S(=O)(=O)c1ccc(C(F)(F)F)cc1)CCO2` (racemic) [Example 73, +/− methyl 2-(1-(1-(4-(trifluoromethyl)phenylsulf-onyl)-2,3-dihydro-1H-pyrido[2,3-b][1,4]oxazine-7-carbonyl)piperidin-2-yl)acetate], with greater than 30 µM; and `O=C(c1cnc2c(c1)N(S(=O)(=O)c1ccc(C(F)(F)F)cc1)CCO2)N1CCCCC1CN1CCCC1` (racemic) [Example 75, +/− (2-(pyrrolidin-1-ylmethyl)piperidin-1-yl)(1-(4-(trifluoromethyl)-phenylsulfonyl)-2,3-dihydro-1H-pyrido[2,3-b][1,4]oxazin-7-yl)-methanone], with greater than 30 µM; and `O=C(c1cnc2c(c1)N(S(=O)(=O)c1ccc(C(F)(F)F)cc1)CCO2)N1CCCCC1CN1CCOCC1` (racemic) [Example 76, +/− (2-(morpholino-methyl)piperidin-1-yl)(1-(4-(trifluoromethyl)-phenylsulfonyl)-2,3-dihydro-1H-pyrido[2,3-b][1,4]oxazin-7-yl)methanone], with greater than 30 µM.
The molecule `O=C(c1cnc2c(c1)N(S(=O)(=O)c1ccccc1)CCO2)N1CCCCC1` [Example 1, (1-(phenylsulfonyl)-2,3-dihydro-1H-pyrido[2,3-b][1,4]oxazin-7-yl)(piperidin-1-yl)methanone] gave an EC50 greater than 30 µM.
On the same count and under the same terms, the value for `O=C(NCC1CCOCC1)c1cnc2c(c1)N(S(=O)(=O)c1ccc(F)cc1)CCO2` [Example 9, 1-(4-fluorophenyl-sulfonyl)-N-((tetrahydro-2H-pyran-4-yl)methyl)-2,3-dihydro-1H-pyrido[2,3-b][1,4]oxazine-7-carboxamide] was greater than 30 µM; that for `CCN(CC)C(=O)c1cnc2c(c1)N(S(=O)(=O)c1ccc(F)cc1)CCO2` [Example 13, N,N-diethyl-1-(4-fluorophenylsulfonyl)2,3-dihydro-1H-pyrido[2,3-b][1,4]oxazine-7-carboxamide] was greater than 30 µM.
Same read-out and setting: the value for `O=C(NCC1CCCO1)c1cnc2c(c1)N(S(=O)(=O)c1ccc(F)cc1)CCO2` (stereo not drawn) [Example 14, 1-(4-fluorophenyl-sulfonyl)-N-((tetra-hydrofuran-2-yl)methyl)-2,3-dihydro-1H-pyrido [2,3-b][1,4]oxazine-7-carboxamide] was greater than 30 µM; that for `CC(C)(C)NC(=O)c1cnc2c(c1)N(S(=O)(=O)c1cccnc1)CCO2` [Example 16, N-tert-butyl-1-(pyridin-3-ylsulfonyl)-2,3-dihydro-1H-pyrido[2,3-b][1,4]oxazine-7-carboxamide] was greater than 30 µM.
Same read-out and setting: then `O=C(NC1CCCC1)c1cnc2c(c1)N(S(=O)(=O)c1cccnc1)CCO2` [Example 17, N-cyclopentyl-1-(pyridin-3-ylsulfonyl)-2,3-dihydro-1H-pyrido[2,3-b][1,4]oxazine-7-carboxamide], with greater than 30 µM; and `CC(C)CS(=O)(=O)N1CCOc2ncc(C(=O)NC(C)(C)C)cc21` [Example 28, N-tert-butyl-1-(isobutylsulfonyl)-2,3-dihydro-1H-pyrido[2,3-b][1,4]oxazine-7-carboxamide], with greater than 30 µM; and `CC(C)CS(=O)(=O)N1CCOc2ncc(C(=O)NC3CCCC3)cc21` [Example 29, N-cyclopentyl-1-(isobutylsulfonyl)-2,3-dihydro-1H-pyrido[2,3-b][1,4]oxazine-7-carboxamide], with greater than 30 µM.
`CN(Cc1ccccc1)C(=O)c1cnc2c(c1)N(S(=O)(=O)c1ccc(F)cc1)CCO2` [Example 32, N-benzyl-1-(4-fluorophenylsulfonyl)-N-methyl-2,3-dihydro-1H-pyrido[2,3-b][1,4]oxazine-7-carboxamide] displayed an EC50 greater than 30 µM.
Same read-out and setting: the value for `COCCN(C)C(=O)c1cnc2c(c1)N(S(=O)(=O)c1ccc(Cl)cc1)CCO2` [Example 34, 1-(4-chlorophenyl-sulfonyl)-N-(2-methoxy-ethyl)-N-methyl-2,3-dihydro-1H-pyrido[2,3-b][1,4]oxazine-7-carboxamide] was greater than 30 µM; that for `COCCN(C)C(=O)c1cnc2c(c1)N(S(=O)(=O)c1ccc(C(F)(F)F)cc1)CCO2` [Example 35, N-(2-methoxyethyl)-N-methyl-1-(4-(trifluoro-methyl)phenylsulfonyl)-2,3-dihydro-1H-pyrido-[2,3-b][1,4]oxazine-7-carboxamide] was greater than 30 µM.
Still for that read-out and setting: the value for `CN(Cc1ccccc1)C(=O)c1cnc2c(c1)N(S(=O)(=O)c1ccc(C(F)(F)F)cc1)CCO2` [Example 36, N-benzyl-N-methyl-1-(4-(trifluoromethyl)phenylsulf-onyl)-2,3-dihydro-1H-pyrido[2,3-b][1,4]oxazine-7-carboxamide] was greater than 30 µM; that for `CC(C)(CN1CCCC1)NC(=O)c1cnc2c(c1)N(S(=O)(=O)c1ccc(C(F)(F)F)cc1)CCO2` [Example 37, N-(2-methyl-1-(pyrrolidin-1-yl)propan-2-yl)-1-(4-(trifluoromethyl)phenylsulf-onyl)-2,3-dihydro-1H-pyrido[2,3-b][1,4]oxazine-7-carboxamide] was greater than 30 µM.
As to `CC(C)(C)N(CCC#N)C(=O)c1cnc2c(c1)N(S(=O)(=O)c1ccc(C(F)(F)F)cc1)CCO2` [Example 41, N-tert-butyl-N-(2-cyanoethyl)-1-(4-(trifluoromethyl)phenylsulf-onyl)-2,3-dihydro-1H-pyrido[2,3-b][1,4]oxazine-7-carboxamide], the EC50 was greater than 30 µM.
`CC(C)(C)N(CCO)C(=O)c1cnc2c(c1)N(S(=O)(=O)c1ccc(C(F)(F)F)cc1)CCO2` [Example 44, N-tert-butyl-N-(2-hydroxyethyl)-1-(4-(trifluoromethyl)phenylsulf-onyl)-2,3-dihydro-1H-pyrido[2,3-b][1,4]oxazine-7-carboxamide] returned a concentration for a half-maximal effect (EC50) greater than 30 µM.
Same read-out and setting: the value for `CC(C)(N)CNC(=O)c1cnc2c(c1)N(S(=O)(=O)c1ccc(C(F)(F)F)cc1)CCO2` [Example 47, N-(2-amino-2-methylpropyl)-1-(4-(trifluoromethyl)phenylsulf-onyl)-2,3-dihydro-1H-pyrido[2,3-b][1,4]oxazine-7-carboxamide] was greater than 30 µM; that for `O=C(c1cnc2c(c1)N(S(=O)(=O)c1ccc(C(F)(F)F)cc1)CCO2)N1CCCCC1` [Example 49, piperidin-1-yl(1-(4-(trifluoromethyl)phenylsulf-onyl)-2,3-dihydro-1H-pyrido[2,3-b][1,4]oxazin-7-yl)methanone] was greater than 30 µM.
In turn, `O=C(c1cnc2c(c1)N(S(=O)(=O)c1ccc(C(F)(F)F)cc1)CCO2)N1CCOCC1` [Example 50, morpholino(1-(4-(trifluoromethyl)phenylsulf-onyl)-2,3-dihydro-1H-pyrido[2,3-b][1,4]oxazin-7-yl)methanone] had an EC50 greater than 30 µM.
The same measure, in the same setting: then `COCCNC(=O)c1cnc2c(c1)N(S(=O)(=O)c1ccc(C(F)(F)F)cc1)CCO2` [Example 51, N-(2-methoxyethyl)-1-(4-(trifluoromethyl)phenysulf-onyl)-2,3-dihydro-1H-pyrido[2,3-b][1,4]oxazine-7-carboxamide], with greater than 30 µM.
The molecule `CC(C)(C)NC(=O)c1cnc2c(c1)N(S(=O)(=O)c1ccc(Cl)cc1Cl)CCO2` [Example 54, N-tert-butyl-1-(2,4-dichlorophenylsulfonyl)-2,3-dihydro-1H-pyrido[2,3-b][1,4]oxazine-7-carboxamide] yielded an EC50 greater than 30 µM.
`Cc1cc(F)ccc1S(=O)(=O)N1CCOc2ncc(C(=O)NC(C)(C)C)cc21` [Example 56, N-tert-butyl-1-(4-fluoro-2-methylphenylsulfonyl)-2,3-dihydro-1H-pyrido[2,3-b][1,4]oxazine-7-carboxamide] registered an EC50 greater than 30 µM.
The same measure, in the same setting: the value for `CC(C)(C)NC(=O)c1cnc2c(c1)N(S(=O)(=O)c1ccc(F)cc1Cl)CCO2` [Example 57, N-tert-butyl-1-(2-chloro-4-fluorophenylsulfonyl)-2,3-dihydro-1H-pyrido[2,3-b][1,4]oxazine-7-carboxamide] was greater than 30 µM.
Same read-out and setting: then `CC(C)(C)NC(=O)c1cnc2c(c1)N(S(=O)(=O)Cc1ccccc1)CCO2` [Example 60, 1-(benzylsulfonyl)-N-tert-butyl-2,3-dihydro-1H-pyrido[2,3-b][1,4]oxazine-7-carboxamide], with greater than 30 µM.
Regarding `CC(C)(C)NC(=O)c1cnc2c(c1)N(S(=O)(=O)Cc1ccc(Cl)cc1)CCO2` [Example 61, N-tert-butyl-1-(4-chlorobenzylsulfonyl)-2,3-dihydro-1H-pyrido[2,3-b][1,4]oxazine-7-carboxamide], under “asterisk at the compound number”, the “inverse agonist mark, human CB1 receptor” value was 2, 3, 5, 7, 8, 10, 39, 58, 61*, 69, 93*, 101, 102, 109, 110, 111, 112,.
On to `CC(C)(C)NC(=O)c1cnc2c(c1)N(S(=O)(=O)Cc1ccc(F)cc1)CCO2` [Example 62, N-tert-butyl-1-(4-fluorobenzylsulfonyl)-2,3-dihydro-1H-pyrido[2,3-b][1,4]oxazine-7-carboxamide], for which the EC50 was greater than 30 µM.
In turn, `CC(C)(CN1CCCCC1)NC(=O)c1cnc2c(c1)N(S(=O)(=O)c1ccc(C(F)(F)F)cc1)CCO2` [Example 77, N-(2-methyl-1-(piperidin-1-yl)propan-2-yl)-1-(4-(trifluoromethyl)phenylsulf-onyl)-2,3-dihydro-1H-pyrido[2,3-b][1,4]oxazine-7-carboxamide] registered an EC50 greater than 30 µM.
On the same count and under the same terms, then `CCCS(=O)(=O)N1CCOc2ncc(C(=O)NC(C)(C)C)cc21` [Example 79, N-tert-butyl-1-(propylsulfonyl)-2,3-dihydro-1H-pyrido[2,3-b][1,4]oxazine-7-carboxamide], with greater than 30 µM; and `CC(C)(C)NC(=O)c1cnc2c(c1)N(S(=O)(=O)c1ccc(C(C)(C)C)cc1)CCO2` [Example 82, N-tert-butyl-1-(4-tert-butylphenylsulfonyl)-2,3-dihydro-1H-pyrido[2,3-b][1,4]oxazine-7-carboxamide], with greater than 30 µM.
The same measure, in the same setting: the value for `CC(C)(C)NC(=O)c1cnc2c(c1)N(S(=O)(=O)c1cccc(OC(F)(F)F)c1)CCO2` [Example 85, N-tert-butyl-1-(3-(trifluoromethoxy)phenyl-sulfonyl)-2,3-dihydro-1H-pyrido[2,3-b][1,4]oxazine-7-carboxamide] was greater than 30 µM.
